PubChem BioAssay (NCI)
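The compound was tested at five concentrations on cells cultured in 96-well plates, with a 48-hour exposure period. At the TGI there is no net growth.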

Legend:
Assay in all cases: NCI tumour cell line growth inhibition, 48 h
SK-OV-3 ovarian = tested on: SK-OV-3 ovarian
EKVX NSCLC = tested on: EKVX NSCLC
RXF 393 renal = tested on: RXF 393 renal
ACHN renal = tested on: ACHN renal
SR leukemia = tested on: SR leukemia
MALME-3M melanoma = tested on: MALME-3M melanoma
LXFL 529 NSCLC = tested on: LXFL 529 NSCLC
SN12C renal = tested on: SN12C renal
NCI-H226 lung = tested on: NCI-H226 lung
OVCAR-5 ovarian = tested on: OVCAR-5 ovarian
CAKI-1 renal = tested on: CAKI-1 renal
XF 498 CNS = tested on: XF 498 CNS
UACC-62 melanoma = tested on: UACC-62 melanoma
SK-MEL-28 melanoma = tested on: SK-MEL-28 melanoma
K-562 leukemia = tested on: K-562 leukemia
KM12 colon = tested on: KM12 colon
SF-295 CNS = tested on: SF-295 CNS
UACC-257 melanoma = tested on: UACC-257 melanoma
A549 NSCLC = tested on: A549 NSCLC
NCI-H460 lung = tested on: NCI-H460 lung
RXF-631 renal = tested on: RXF-631 renal
SNB-19 CNS = tested on: SNB-19 CNS
SNB-75 CNS = tested on: SNB-75 CNS
SNB-78 CNS = tested on: SNB-78 CNS
NCI-H23 lung = tested on: NCI-H23 lung
HL-60(TB) leukemia = tested on: HL-60(TB) leukemia
DMS 114 small cell lung = tested on: DMS 114 small cell lung
UO-31 renal = tested on: UO-31 renal
SW-620 colon = tested on: SW-620 colon
M19-MEL melanoma = tested on: M19-MEL melanoma
OVCAR-8 ovarian = tested on: OVCAR-8 ovarian
RPMI-8226 leukemia = tested on: RPMI-8226 leukemia
SK-MEL-2 melanoma = tested on: SK-MEL-2 melanoma
SK-MEL-5 melanoma = tested on: SK-MEL-5 melanoma
IGROV1 ovarian = tested on: IGROV1 ovarian
HCT-15 colon = tested on: HCT-15 colon
HOP-92 NSCLC = tested on: HOP-92 NSCLC
SF-539 CNS = tested on: SF-539 CNS
HCT-116 colon = tested on: HCT-116 colon
A498 renal = tested on: A498 renal
M14 melanoma = tested on: M14 melanoma
HOP-62 NSCLC = tested on: HOP-62 NSCLC
DLD-1 colon = tested on: DLD-1 colon
HOP-18 NSCLC = tested on: HOP-18 NSCLC
HCC-2998 colon = tested on: HCC-2998 colon
MOLT-4 leukemia = tested on: MOLT-4 leukemia
SF-268 CNS = tested on: SF-268 CNS
KM20L2 colon = tested on: KM20L2 colon
CCRF-CEM leukemia = tested on: CCRF-CEM leukemia
TK-10 renal = tested on: TK-10 renal
DMS 273 small cell lung = tested on: DMS 273 small cell lung
U251 CNS = tested on: U251 CNS
786-0 renal = tested on: 786-0 renal
HT29 colon = tested on: HT29 colon
OVCAR-4 ovarian = tested on: OVCAR-4 ovarian
NCI-H522 lung = tested on: NCI-H522 lung
LOX IMVI melanoma = tested on: LOX IMVI melanoma
P388 leukemia = tested on: P388 leukemia
COLO 205 colon = tested on: COLO 205 colon
NCI/ADR-RES ovarian = tested on: NCI/ADR-RES ovarian
SN12K1 renal = tested on: SN12K1 renal
MCF7 breast = tested on: MCF7 breast
P388/ADR leukemia = tested on: P388/ADR leukemia
OVCAR-3 ovarian = tested on: OVCAR-3 ovarian

Measured: TGI

CN(C)C(=S)/N=c1\ssc(=S)n1C
not listed: LOX IMVI melanoma | P388 leukemia | COLO 205 colon | NCI/ADR-RES ovarian | SN12K1 renal | MCF7 breast | P388/ADR leukemia | OVCAR-3 ovarian
> 100 µM: all other assays above

c1ccc2c(c1)NCc1cc3ccccc3nc1O2
> 31.6 µM: UO-31 renal
not listed: ACHN renal | SR leukemia | LXFL 529 NSCLC | RXF-631 renal | M14 melanoma | KM20L2 colon | TK-10 renal | 786-0 renal
> 100 µM: all other assays above
